Source: the NIST ThermoML archive (doi:10.1016/j.jct.2006.09.010)
Numbers after ± are expanded uncertainties.

Conditions: Liquid

FC(F)C(F)(F)F [pentafluoroethane]
vapor or sublimation pressure (313.15 K): 2008 ± 38 kPa | vapor or sublimation pressure (323.15 K): 2535 ± 48 kPa | vapor or sublimation pressure (333.15 K): 3171 ± 59 kPa
